# Reference: patent US20250346592A1 (Celgene Corporation, priority 2022, published 2025)
# Target: hPAD4 enzyme (Homo sapiens (Human), UniProt Q9UM07)
# Assay: RFMS2 assay (RapidFire mass spectrometry, TSTGGRQGSHH peptide substrate)
# Type: biochemical
# Settings: 35 nM recombinant human PAD4, 500 μM TSTGGRQGSHH peptide, 30 minutes at room temperature; read-out: RFMS 2 IC50
# Procedure, shortened: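 IC50 derived from RapidFire LC-MS/MS (positive ESI MRM) of substrate versus product after a 30 min room-temperature reaction stopped with 10% formic acid. Reaction contained 35 nM human PAD4, 500 μM peptide, 2 mM CaCl2, 5 mM DTT at pH 7.4, and compounds diluted 3-fold from 20 μM.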
# hPAD4 enzyme, sequence (Q9UM07 whole entry): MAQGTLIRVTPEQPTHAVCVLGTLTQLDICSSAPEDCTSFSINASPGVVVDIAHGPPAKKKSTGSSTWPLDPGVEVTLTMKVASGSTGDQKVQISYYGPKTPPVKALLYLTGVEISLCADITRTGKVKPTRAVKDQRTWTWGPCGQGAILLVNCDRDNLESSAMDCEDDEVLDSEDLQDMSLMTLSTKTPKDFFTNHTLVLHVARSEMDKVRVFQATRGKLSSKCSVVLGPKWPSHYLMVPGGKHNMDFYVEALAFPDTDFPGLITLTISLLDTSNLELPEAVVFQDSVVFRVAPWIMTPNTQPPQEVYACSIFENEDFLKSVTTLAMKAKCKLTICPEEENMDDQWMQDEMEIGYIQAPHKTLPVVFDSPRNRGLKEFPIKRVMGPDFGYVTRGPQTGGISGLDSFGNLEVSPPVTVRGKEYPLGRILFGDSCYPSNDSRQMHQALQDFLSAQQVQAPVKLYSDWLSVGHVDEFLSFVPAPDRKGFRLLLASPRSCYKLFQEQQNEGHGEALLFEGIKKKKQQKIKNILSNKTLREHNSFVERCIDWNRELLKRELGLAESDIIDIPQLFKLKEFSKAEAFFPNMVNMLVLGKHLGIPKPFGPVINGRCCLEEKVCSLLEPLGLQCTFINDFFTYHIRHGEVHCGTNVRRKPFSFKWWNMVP
row,Structure (SMILES),IC50 [nM]
1,"COc1cccc2cc(-c3nc4cc5c(cc4n3C)CCN(C[C@H](N)CF)C5=O)n(Cc3ccnnc3)c12 [Example 144, (S)-6-(2-amino-3-fluoropropyl)-2-(7-methoxy-1-(pyridazin-4-ylmethyl)-1H-indol-2-yl)-1-methyl-1,6,7,8-tetrahydro-5H-imidazo[4,5-g]isoquinolin-5-one]",101 to 500
2,"COc1cccc2cc(-c3nc4cc5c(cc4n3C)CCN(C[C@H](N)CF)C5=O)n(Cc3coc(C)n3)c12 [Example 145, (S)-6-(2-amino-3-fluoropropyl)-2-(7-methoxy-1-((2-methyloxazol-4-yl)methyl)-1H-indol-2-yl)-1-methyl-1,6,7,8-tetrahydro-5H-imidazo[4,5-g]isoquinolin-5-one]",101 to 500
3,"COC1(Cn2c(-c3nc4cc5c(cc4n3C)CCN(C[C@H](N)CF)C5=O)cc3ccccc32)CC1 [Example 147, (S)-6-(2-amino-3-fluoropropyl)-2-(1-((1-methoxycyclopropyl)methyl)-1H-indol-2-yl)-1-methyl-1,6,7,8-tetrahydro-5H-imidazo[4,5-g]isoquinolin-5-one]",> 1000
4,"Cn1c(-c2cc3cccc(C#N)c3n2Cc2ccno2)nc2cc3c(cc21)CCN(C[C@H](N)CF)C3=O [Example 148, (S)-2-(6-(2-amino-3-fluoropropyl)-1-methyl-5-oxo-5,6,7,8-tetrahydro-1H-imidazo[4,5-g]isoquinolin-2-yl)-1-(isoxazol-5-ylmethyl)-1H-indole-7-carbonitrile]",501 to 1000
5,"Cn1c(-c2cc3cccc(OCC4COC4)c3n2CC2CC2)nc2cc3c(cc21)CCN(C[C@H](N)CF)C3=O [Example 149, (S)-6-(2-amino-3-fluoropropyl)-2-(1-(cyclopropylmethyl)-7-(oxetan-3-ylmethoxy)-1H-indol-2-yl)-1-methyl-1,6,7,8-tetrahydro-5H-imidazo[4,5-g]isoquinolin-5-one]",101 to 500
6,Cn1c(-c2cc3cccc(OCC4CNC(=O)C4)c3n2CC2CC2)nc2cc3c(cc21)CCN(C[C@H](N)CF)C3=O (stereo partly shown) [Example 151],11 to 100
7,"Cn1c(-c2cc3cccc(OCC4CNC4)c3n2CC2CC2)nc2cc3c(cc21)CCN(C[C@H](N)CF)C3=O [Example 152, (S)-6-(2-amino-3-fluoropropyl)-2-(7-(azetidin-3-ylmethoxy)-1-(cyclopropylmethyl)-1H-indol-2-yl)-1-methyl-1,6,7,8-tetrahydro-5H-imidazo[4,5-g]isoquinolin-5-one]",101 to 500
8,"COCCOc1cccc2cc(-c3nc4cc5c(cc4n3C)CCN(C[C@H](N)CF)C5=O)n(CC3CC3)c12 [Example 153, (S)-6-(2-amino-3-fluoropropyl)-2-(1-(cyclopropyl-methyl)-7-(2-methoxyethoxy)-1H-indol-2-yl)-1-methyl-1,6,7,8-tetrahydro-5H-imidazo[4,5-g] isoquinolin-5-one]",101 to 500
9,"CN(C)CCOc1cccc2cc(-c3nc4cc5c(cc4n3C)CCN(C[C@H](N)CF)C5=O)n(CC3CC3)c12 [Example 154, (S)-6-(2-amino-3-fluoropropyl)-2-(1-(cyclopropyl-methyl)-7-(2-(dimethylamino)ethoxy)-1H-indol-2-yl)-1-methyl-1,6,7,8-tetrahydro-5H-imidazo[4,5-g] isoquinolin-5-one]",> 1000
10,"Cn1c(-c2cc3cccc(OCCn4cccn4)c3n2CC2CC2)nc2cc3c(cc21)CCN(C[C@H](N)CF)C3=O [Example 155, (S)-2-(7-(2-(1H-pyrazol-1-yl)ethoxy)-1-(cyclopropyl-methyl)-1H-indol-2-yl)-6-(2-amino-3-fluoropropyl)-1-methyl-1,6,7,8-tetrahydro-5H-imidazo[4,5-g] isoquinolin-5-one]",11 to 100
11,"Cn1c(-c2cc3cccc(OC[C@@H]4CCC(=O)N4)c3n2CC2CC2)nc2cc3c(cc21)CCN(C[C@H](N)CF)C3=O [Example 156, 6-((S)-2-amino-3-fluoropropyl)-2-(1-(cyclopropyl-methyl)-7-(((S)-5-oxopyrrolidin-2-yl)methoxy)-1H-indol-2-yl)-1-methyl-1,6,7,8-tetrahydro-5H-imidazo [4,5-g]isoquinolin-5-one]",101 to 500
12,"Cn1c(-c2cc3cccc(OC[C@H]4CCC(=O)N4)c3n2CC2CC2)nc2cc3c(cc21)CCN(C[C@H](N)CF)C3=O [Example 157, 6-((S)-2-amino-3-fluoropropyl)-2-(1-(cyclopropyl-methyl)-7-(((R)-5-oxopyrrolidin-2-yl)methoxy)-1H-indol-2-yl)-1-methyl-1,6,7,8-tetrahydro-5H-imidazo [4,5-g]isoquinolin-5-one]",101 to 500
13,"Cn1c(-c2cc3cccc(OCCN4CCOCC4)c3n2CC2CC2)nc2cc3c(cc21)CCN(C[C@H](N)CF)C3=O [Example 158, (S)-6-(2-amino-3-fluoropropyl)-2-(1-(cyclopropyl-methyl)-7-(2-morpholinoethoxy)-1H-indol-2-yl)-1-methyl-1,6,7,8-tetrahydro-5H-imidazo[4,5-g] isoquinolin-5-one]",501 to 1000
14,"Cn1c(-c2cc3cccc(OC[C@@H]4CNCCO4)c3n2CC2CC2)nc2cc3c(cc21)CCN(C[C@H](N)CF)C3=O [Example 159, 6-((S)-2-amino-3-fluoropropyl)-2-(1-(cyclopropyl-methyl)-7-(((S)-morpholin-2-yl)methoxy)-1H-indol-2-yl)-1-methyl-1,6,7,8-tetrahydro-5H-imidazo[4,5-g] isoquinolin-5-one]",501 to 1000
15,"Cn1c(-c2cc3cccc(OC[C@H]4CNCCO4)c3n2CC2CC2)nc2cc3c(cc21)CCN(C[C@H](N)CF)C3=O [Example 160, 6-((S)-2-amino-3-fluoropropyl)-2-(1-(cyclopropylmethyl)-7-(((R)-morpholin-2-yl)methoxy)-1H-indol-2-yl)-1-methyl-1,6,7,8-tetrahydro-5H-imidazo[4,5-g]isoquinolin-5-one]",501 to 1000
16,"Cn1c(-c2cc3cccc(OCC4CCOCC4)c3n2CC2CC2)nc2cc3c(cc21)CCN(C[C@H](N)CF)C3=O [Example 161, (S)-6-(2-amino-3-fluoropropyl)-2-(1-(cyclopropylmethyl)-7-((tetrahydro-2H-pyran-4-yl)methoxy)-1H-indol-2-yl)-1-methyl-1,6,7,8-tetrahydro-5H-imidazo[4,5-g]isoquinolin-5-one]",501 to 1000
17,"Cc1nc(C)n(CCOc2cccc3cc(-c4nc5cc6c(cc5n4C)CCN(C[C@H](N)CF)C6=O)n(CC4CC4)c23)n1 [Example 162, (S)-6-(2-amino-3-fluoropropyl)-2-(1-(cyclopropyl-methyl)-7-(2-(3,5-dimethyl-1H-1,2,4-triazol-1-yl)ethoxy)-1H-indol-2-yl)-1-methyl-1,6,7,8-tetrahydro-5H-imidazo[4,5-g]isoquinolin-5-one]",101 to 500
18,"Cc1ncnn1CCOc1cccc2cc(-c3nc4cc5c(cc4n3C)CCN(C[C@H](N)CF)C5=O)n(CC3CC3)c12 [Example 163, (S)-6-(2-amino-3-fluoropropyl)-2-(1-(cyclopropylmethyl)-7-(2-(5-methyl-1H-1,2,4-triazol-1-yl)ethoxy)-1H-indol-2-yl)-1-methyl-1,6,7,8-tetrahydro-5H-imidazo[4,5-g]isoquinolin-5-one]",101 to 500
19,"Cc1ncn(CCOc2cccc3cc(-c4nc5cc6c(cc5n4C)CCN(C[C@H](N)CF)C6=O)n(CC4CC4)c23)n1 [Example 164, (S)-6-(2-amino-3-fluoropropyl)-2-(1-(cyclopropyl-methyl)-7-(2-(3-methyl-1H-1,2,4-triazol-1-yl)ethoxy)-1H-indol-2-yl)-1-methyl-1,6,7,8-tetrahydro-5H-imidazo[4,5-g]isoquinolin-5-one]",11 to 100
